The values that follow come from patent publication US10149472B2, “Chitin oligomers for use in promoting non-leguminous plant growth and development” (Wisconsin Alumni Research Foundation, priority 2015, dated 2018).

One test has as its system Hard Red Spring Wheat. The test is described as follows: Seed treatment of hard red spring wheat in pots. The test is classed as in vivo. The conditions noted are these: seed coating 125 μl of 10^−6 M, 2 weeks after planting. The procedure: Five grams of hard red spring wheat seeds were added to three separate 50 ml tubes. A water solution containing 0.5% ethanol was added to the control tube, 125 μl of 10^−6 M CO4 solution was added to the CO4 tube, and 125 μl of 10^−6 M CO8 solution was added to the CO8 tube. Each tube was then shaken to coat the seeds. Seeds were potted immediately following treatment into moistened SUNGRO® potting mix in 4×6×6 cm pots. Plants were watered by pouring water into the tray containing the pots up to about ¾ inch high. After sowing the seeds, the pots were randomly distributed (16 pots per treatment) throughout the tray and placed underneath continuous light at room temperature for 1 week. Liquid Fahräeus medium (plant fertilizer solution; see above) was applied every 2 days or when necessary. After a week, the pots were placed underneath 10 h light and 14 h dark cycle at room temperature for 1 week. After 1 week underneath 10 h light and 14 h dark cycle (2 weeks after planting), the plants were carefully removed from the pots, and as much soil as possible was shaken off. The remaining soil was removed by submerging the root system into a beaker of water. The number of primary roots (PR), lateral roots (LR), root system length (RSL) and dry weight (DW) was then measured for all plants.

For test [1], the system named is Rice. The test is described as follows: Seed treatment of rice in vitro (plates). It is filed as in vivo. The conditions noted are these: seed coating 10^−6 M; 33 days; vs ethanol control; FIG. 10. As to the method:
Rice seeds were sterilized using 2% bleach. The sterilized seeds were then divided among 3 treatment groups of 10 seeds each into 15 ml falcon tubes. To the control tube, 0.5% ethanol in water was added. To the CO4 tube, 100 μl of 10^−6 M CO4 solution was added. To the CO8 tube, 100 μl of 10^−6 M CO8 solution was added. Each tube was then shaken to coat the seeds. The coated seeds were then placed on sterile Petri dishes in a hood and were left to dry overnight in the hood. The seeds were then germinated on damp germination paper in sterile Petri dishes for 5 days. The resulting seedlings were transferred to Fahräeus medium plates containing damp germination paper, and the plates were wrapped in Parafilm®. The roots part of the plate was covered with aluminum foil. The plants were grown at room temperature under continuous light for 33 days. The length of the shoot and root systems was measured for all plants.

Test [2] deals with rice. In words: Root architecture modification in wild-type rice after submersion treatment. The conditions noted are these: 10^−8M, 24 hours submersion, assessed after two weeks, FIG. 3. It is filed as in vivo, Oryza sativa cv Nipponbare. The procedure:
(§1) Oryza sativa cv Nipponbare wild-type and Tos17 insertion lines in POLLUX (line NC6453) and DMI3 were used for root architecture experiments (12, 13). Seeds were prepared by sterilizing with 2% bleach for 20 minutes, followed by 3, 5-minute rinses with sterile water. The sterile seeds were then imbibed overnight. Seeds were then plated on damp germination paper in Petri plates under sterile conditions and germinated in the dark at 25 degrees for 7 days. Germinated rice plants were then plated on Fahraeus medium on germination paper and grown at 22 degrees under constant light. After 5 days the plants were treated with 10^−8M LCOs and COs for 24 hours by submersion and re-plated onto Fåhræus Medium 1.5% agar plates (0.132 g/L CaCl2, 0.12 g/L MgSO4.7H2O, 0.1 g/L KH2PO4, 0.075 g/L Na2HPO4.2H2O, 5 mg/L Fe-citrate, and 0.07 mg/L each of MnCl2.4H2O, CuSO4.5H2O, ZnCl2, H3BO3, and Na2MoO4.2H2O, adjusted to pH 6.5 before autoclaving). As all signals were suspended in 50% ethanol, the appropriate concentration of ethanol in sterile DI water served as a control. Root system architecture was assessed after 2 weeks.
(§2) Total lateral roots of rice were enumerated manually two weeks after application of 10^−8M COs and LCOs. As COs and LCOs were suspended in 50% ethanol, the control is sterile deionized water containing the appropriate amount of ethanol. Lateral roots were defined as large and fine lateral roots emerging from crown roots, as well as fine lateral roots emerging from large lateral roots. Root system length was measured starting from the root-shoot junction to the tip of the longest root. The number of crown roots was assessed manually as those roots emerging from the root-shoot junction. Root type characterizations were based upon the descriptions in Gutjahr et al. (19). Data were assessed for normality using the Shapiro-Wilk test (α=0.01), and statistical significance was determined using a paired t-test assuming unequal variances, or a Mann-Whitney-Wilcoxon Test if normality was not observed (α=0.05). All statistical analysis was conducted using the R software package (20).

In test [3] the test system is rice knock-out mutants of pollux and dmi3. The test is described as follows: Root architecture modification in rice Ospollux and Osdmi3 mutants. It is filed as in vivo, Oryza sativa cv Nipponbare. The conditions noted are these: 10^−8M; Ospollux and Osdmi3 mutants vs wild-type; FIG. 4. As to the method:
as §1
as §2, with “Lateral roots were defined as large and fine lateral roots emerging from crown roots, as well as fine lateral roots emerging from large lateral roots.” left out, “Root type characterizations were based upon the descriptions in Gutjahr et al. (19).” left out, “All statistical analysis was conducted using the R software package (20).” left out
To assess the role of the common symbiotic pathway in regulating root architecture modifications in response to purified LCOs and COs, we quantified root responses to mycorrhizal signals in rice knock-out mutants of pollux (upstream of calcium spiking) and dmi3 (downstream of calcium spiking).

Test [4] concerns pea (the legume Pisum sativum). The test is described as follows: Seed treatment of pea in pots. The test is classed as in vivo. The conditions noted are these: seed coating 125 μl of 10^−6 M, 2 weeks after planting, * significant at P < 0.05. The procedure:
Five grams of pea seeds (the legume Pisum sativum) were added to three separate 50 ml tubes. A water solution containing 0.5% ethanol was added to the control tube, 125 μl of 10^−6M CO4 solution was added to the CO4 tube, and 125 μl of 10^−6 M CO8 solution was added to the CO8 tube. Each tube was then shaken to coat the seeds. Seeds were potted immediately following treatment into moistened SUNGRO® potting mix in 4×6×6 cm pots. Plants were watered by pouring water into the tray containing the pots up to about ¾ inch high. After sowing the seeds, the pots were randomly distributed (16 pots per treatment) throughout the tray and placed underneath continuous light at room temperature for 1 week. Liquid Fahräeus medium (plant fertilizer solution; see above) was applied every 2 days or when necessary. After a week, the pots were placed underneath 10 h light and 14 h dark cycle at room temperature for 1 week. After 1 week underneath 10 h light and 14 h dark cycle (2 weeks after planting), the plants were carefully removed from the pots, and as much soil as possible was shaken off. The remaining soil was removed by submerging the root system into a beaker of water. The number of primary roots (PR), lateral roots (LR), root system length (RSL) and dry weight (DW) were then measured for all plants.

For `CC(=O)N[C@H]1[C@H](O[C@H]2[C@H](O)[C@@H](NC(C)=O)C(O)O[C@@H]2CO)O[C@H](CO)[C@@H](O[C@@H]2O[C@H](CO)[C@@H](O[C@@H]3O[C@H](CO)[C@@H](O)[C@H](O)[C@H]3NC(C)=O)[C@H](O)[C@H]2NC(C)=O)[C@@H]1O` (stereo partly shown) [CO4, tetra-N-acetylchitotetraose], in the test on Hard Red Spring Wheat, the “Number of Lateral Roots” value amounted to 16.25, the “Number of Primary Roots” value amounted to 3.15 and the “Root System Length (cm)” value was 11.75 cm. Moreover, in the test with Rice [1], the root system length entry was “significantly increased” and the shoot length entry is “significantly increased”. For the same molecule, in the test with rice [2], the crown root growth result is given as “promoted” and the lateral root growth result was “promoted”. Further, the “dependence of lateral root growth promotion on POLLUX / DMI3” value in test [3] is “dependent on both POLLUX and DMI3”.
Take `CC(=O)N[C@H]1[C@H](O[C@H]2[C@H](O)[C@@H](NC(C)=O)[C@H](O[C@H]3[C@H](O)[C@@H](NC(C)=O)[C@H](O[C@H]4[C@H](O)[C@@H](NC(C)=O)C(O)O[C@@H]4CO)O[C@@H]3CO)O[C@@H]2CO)O[C@H](CO)[C@@H](O[C@@H]2O[C@H](CO)[C@@H](O[C@@H]3O[C@H](CO)[C@@H](O[C@@H]4O[C@H](CO)[C@@H](O[C@@H]5O[C@H](CO)[C@@H](O)[C@H](O)[C@H]5NC(C)=O)[C@H](O)[C@H]4NC(C)=O)[C@H](O)[C@H]3NC(C)=O)[C@H](O)[C@H]2NC(C)=O)[C@@H]1O` (stereo partly shown) [CO8, octa-N-acetyl-chitooctaose]: in the test on Hard Red Spring Wheat, the “Number of Lateral Roots” value was determined as 14.30, the “Number of Primary Roots” value is reported as 3.35 and the “Root System Length (cm)” value worked out at 12.22 cm. In test [4], the “Average Lateral Roots” value is listed as “significantly decreased” and the “Average Primary Roots” value was “significantly decreased”. For the same molecule, in the test with rice [2], the crown root growth entry is “promoted” and the lateral root growth result is given as “promoted”. Further, the “dependence of lateral root growth promotion on POLLUX / DMI3” value in test [3] is listed as “dependent on POLLUX”.
